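Five concentrations, 48 hours, 96-well plates. Abbreviation: GI50, concentration required for 50% inhibition of growth.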 The source made the active and inactive calls. Cut-off read from the data, not from the text of the source: active = GI50 up to about 1.1 µM and inactive = higher.

The values that follow come from ChEMBL document CHEMBL1201862, “PubChem BioAssay data set” (2004).

Some test systems named below: BT-549; EKVX; HCT-15; HL-60; K562; MDA-MB-435; MOLT-4; NCI-H522; NCI/ADR-RES; OVCAR-4; RPMI-8226; SF-539; SK-MEL-2; SK-MEL-5; SN12C; U-251; UACC-257; UACC-62; UO-31; HCC 2998.
Assay in all cases: growth of human tumour cells (NCI), 48 h

For the compound `O=C(O)C1(C(=O)O)CCN(S(=O)(=O)c2ccccc2)CC1`, the GI50 was > 100 µM (inactive) in the test with BT-549; > 100 µM (inactive) in the test with EKVX; over 100 µM in the test on HCT-15; > 100 µM (inactive) in the test with HL-60; > 100 µM (inactive) in the test on K562; > 100 µM (inactive) in the test on MDA-MB-435. Also, the GI50 with MOLT-4, in the test on NCI-H522, in the test on NCI/ADR-RES, in the test with OVCAR-4, in the test with RPMI-8226 and in the test on SF-539 was > 100 µM (inactive) in each case. In addition, the GI50 in the test with SK-MEL-2, in the test on SK-MEL-5, in the test with SN12C, in the test with U-251, in the test on UACC-257 and in the test on UACC-62 was > 100 µM (inactive) throughout. Further, in the test with UO-31, the GI50 is > 100 µM (inactive).

As to `N#CC(NCCO)=C1C(=O)c2ccccc2C1=O`, the GI50 in the test on BT-549 was > 100 µM (inactive); in the test on EKVX, > 100 µM (inactive); in the test on HCT-15, over 100 µM; in the test on HL-60 it was > 100 µM (inactive); with K562, > 100 µM (inactive); in the test with MDA-MB-435, > 100 µM (inactive). Also, the GI50 with MOLT-4, with NCI-H522, with NCI/ADR-RES, with OVCAR-4, in the test with RPMI-8226 and with SF-539 was > 100 µM (inactive) each time. Moreover, the GI50 in the test on SK-MEL-2, in the test on SK-MEL-5, with SN12C, with U-251, in the test with UACC-257 and in the test on UACC-62 was > 100 µM (inactive) throughout. Further, in the test on UO-31, the GI50 is > 100 µM (inactive).

Consider `CCCCN1CCC(O)(c2cc(C(=O)O)[nH]c2-c2cc(C)no2)C1=O` (centres undefined), for which the GI50 in the test on BT-549 is > 100 µM (inactive); with EKVX, > 100 µM (inactive); with HCC 2998 it was > 100 µM (inactive); in the test with HCT-15, over 100 µM; in the test with K562 it was > 100 µM (inactive); in the test on MDA-MB-435 it was > 100 µM (inactive). For the same compound, the GI50 in the test with MOLT-4, in the test on NCI-H522, in the test with NCI/ADR-RES, in the test on OVCAR-4, in the test on RPMI-8226 and with SK-MEL-2 was > 100 µM (inactive) in each case. In addition, the GI50 in the test on SK-MEL-5, in the test with U-251, in the test with UACC-257, in the test with UACC-62 and in the test on UO-31 was > 100 µM (inactive) in each case.

For the compound `CCOC(=O)[C@H](C)OC(=O)[C@@](C)(NC(=O)c1ccccc1C(=O)OC)[C@@H]1NC=C(C(=O)OC)CS1`, the GI50 in the test on BT-549 is > 100 µM (inactive); in the test on EKVX, > 100 µM (inactive); with HCC 2998, > 100 µM (inactive); with HCT-15, over 100 µM; with K562, 36.5 µM (inactive); in the test with MDA-MB-435 it was 27.6 µM (inactive). Further, the GI50 in the test with MOLT-4 was 41.8 µM (inactive); in the test on NCI-H522, > 100 µM (inactive); with NCI/ADR-RES it was > 100 µM (inactive); with OVCAR-4 it was > 100 µM (inactive); in the test with RPMI-8226, 38.1 µM (inactive); with SK-MEL-2, > 100 µM (inactive). For the same compound, the GI50 in the test with SK-MEL-5 was 74.1 µM (inactive); in the test with SN12C it was > 100 µM (inactive); with U-251, > 100 µM (inactive); with UACC-257, > 100 µM (inactive); with UACC-62 it was 76 µM (inactive); with UO-31 it was > 100 µM (inactive).

Consider `COC(=O)C1=C(O)C(C(=O)OC)[C@]2(O)[C@@H](C(=O)OC)[C@H]1[C@H](C)[C@@H](c1ccccc1)[C@@H]2C(=O)OC` (some centres undefined), for which the GI50 was 38.8 µM (inactive) in the test with BT-549; 55.7 µM (inactive) in the test on EKVX; 57.8 µM in the test on HCT-15; 26.4 µM (inactive) in the test with HL-60; 57.4 µM (inactive) in the test on K562; 46.1 µM (inactive) in the test on MDA-MB-435. Further, the GI50 in the test with MOLT-4 is 85.9 µM (inactive); in the test with NCI-H522, 18.9 µM (inactive); with NCI/ADR-RES, 40.7 µM (inactive); with OVCAR-4, 80 µM (inactive); in the test on SF-539, > 100 µM (inactive); in the test on SK-MEL-2, 96.4 µM (inactive). In addition, the GI50 in the test with SK-MEL-5 was 36.2 µM (inactive); in the test on SN12C, 66.4 µM (inactive); in the test with U-251, > 100 µM (inactive); with UACC-257, > 100 µM (inactive); in the test with UACC-62 it was 65.5 µM (inactive).

For `CC1CCCOc2ccc(cc2)/C=N\c2ccc(cc2)CCc2ccc(cc2)/N=C\c2ccc(cc2)OCCC1`, the GI50 in the test with BT-549 was > 100 µM (inactive); in the test with EKVX it was > 100 µM (inactive); in the test with HCC 2998, > 100 µM (inactive); with HCT-15, over 100 µM; with K562, > 100 µM (inactive); in the test on MDA-MB-435, > 100 µM (inactive). For the same compound, the GI50 with MOLT-4, in the test with NCI-H522, in the test on NCI/ADR-RES, in the test with OVCAR-4, in the test with RPMI-8226 and in the test with SF-539 was > 100 µM (inactive) in each case. For the same compound, the GI50 in the test on SK-MEL-2, in the test with SK-MEL-5, with SN12C, in the test on U-251, in the test on UACC-257 and with UACC-62 was > 100 µM (inactive) in each case. For the same compound, the GI50 with UO-31 is > 100 µM (inactive).

As for `Cc1ccc(-n2c(C)n[nH]c2=O)cc1`, the GI50 in the test with BT-549 is > 100 µM (inactive); in the test with EKVX it was > 100 µM (inactive); with HCC 2998, > 100 µM (inactive); with HCT-15, over 100 µM; in the test with K562, > 100 µM (inactive); with MDA-MB-435, > 100 µM (inactive). The GI50 in the test with MOLT-4, in the test on NCI-H522, in the test on NCI/ADR-RES, in the test with RPMI-8226, in the test on SF-539 and with SK-MEL-2 was > 100 µM (inactive) each time. Moreover, the GI50 in the test with SK-MEL-5, with SN12C, in the test with U-251, with UACC-257, in the test with UACC-62 and in the test with UO-31 was > 100 µM (inactive) each time.

Take `O=C(O)C(C1NCCS1)N1C(=O)c2ccccc2C1=O` (centres undefined): the GI50 is > 100 µM (inactive) in the test on BT-549; > 100 µM (inactive) in the test with EKVX; over 100 µM in the test on HCT-15; > 100 µM (inactive) with HL-60; > 100 µM (inactive) in the test with K562; > 100 µM (inactive) in the test with MDA-MB-435. The GI50 with MOLT-4, in the test on NCI-H522, with NCI/ADR-RES, with OVCAR-4, with RPMI-8226 and with SF-539 was > 100 µM (inactive) each time. For the same compound, the GI50 in the test on SK-MEL-2, with SK-MEL-5, in the test on SN12C, in the test on U-251, in the test on UACC-257 and in the test on UACC-62 was > 100 µM (inactive) each time. In the test with UO-31, the GI50 was > 100 µM (inactive).

In the case of `Cc1cc(Nc2ccc(NS(C)(=O)=O)cc2)c2c(ccc3[nH]ccc32)n1`, the GI50 is 21.9 µM (inactive) with BT-549; 36 µM (inactive) with EKVX; over 100 µM in the test with HCT-15; 13.6 µM (inactive) in the test with K562; 16.1 µM (inactive) in the test with MDA-MB-435; 2.77 µM (inactive) in the test with MOLT-4. Further, the GI50 with NCI-H522 was 9.35 µM (inactive); in the test on NCI/ADR-RES it was > 100 µM (inactive); in the test on OVCAR-4 it was 12.4 µM (inactive); in the test on RPMI-8226, 20.6 µM (inactive); in the test with SK-MEL-2, 15.9 µM (inactive); in the test on SK-MEL-5, 15.1 µM (inactive). The GI50 with SN12C was 17.8 µM (inactive); with U-251 it was 15.1 µM (inactive); in the test on UACC-257, 17.3 µM (inactive); in the test on UACC-62 it was 15.7 µM (inactive); in the test with UO-31, > 100 µM (inactive).

Consider `CCOc1nc(N)nc(C)c1/N=N/c1ccc(Cl)cc1`, for which the GI50 was 59 µM (inactive) with BT-549; 51.6 µM (inactive) in the test on EKVX; over 100 µM with HCT-15; > 100 µM (inactive) in the test with HL-60; 48.5 µM (inactive) with K562; > 100 µM (inactive) in the test on MDA-MB-435. The GI50 was 10.7 µM (inactive) in the test on MOLT-4; 69.7 µM (inactive) in the test with NCI-H522; > 100 µM (inactive) in the test on NCI/ADR-RES; > 100 µM (inactive) in the test with OVCAR-4; 25.9 µM (inactive) with RPMI-8226; 36.9 µM (inactive) in the test with SF-539. The GI50 with SK-MEL-2 is > 100 µM (inactive); in the test on SK-MEL-5, 0.649 µM (active); with SN12C, 14.1 µM (inactive); in the test on U-251 it was > 100 µM (inactive); with UACC-257, > 100 µM (inactive); in the test with UACC-62, 94.4 µM (inactive). The GI50 in the test with UO-31 was 45 µM (inactive).

For `NS(=O)(=O)c1ccc(NS(=O)(=O)c2ccc(NC(=O)N(c3ccccc3)c3ccccc3)cc2)cc1`, the GI50 was 87.1 µM (inactive) in the test on BT-549; > 100 µM (inactive) with EKVX; over 100 µM with HCT-15; 26.1 µM (inactive) with K562; 24.9 µM (inactive) in the test with MDA-MB-435; 34 µM (inactive) with MOLT-4. For the same compound, the GI50 in the test on NCI-H522 is 30.5 µM (inactive); in the test with NCI/ADR-RES, > 100 µM (inactive); with OVCAR-4, 45.2 µM (inactive); with RPMI-8226 it was 24.8 µM (inactive); in the test on SK-MEL-2 it was 48.5 µM (inactive); in the test with SK-MEL-5 it was 68.2 µM (inactive). The GI50 with SN12C is > 100 µM (inactive); in the test on U-251 it was > 100 µM (inactive); in the test with UACC-257 it was 77.4 µM (inactive); in the test on UACC-62, 63.4 µM (inactive); with UO-31, > 100 µM (inactive).
